Measured values published in the OligoGym collection.
Bases are written 5' to 3'; sugars and linkages follow in the same order, as letters with counts (s phosphorothioate, o phosphodiester; PS: all linkages phosphorothioate). C may stand for cytosine or 5-methylcytosine; the collection does not tell. l = locked nucleic acid (LNA); d = 2'-deoxy (DNA)

target: HIF1A; test: HeLa, 100 nM transfected, 24 h, mean of 3; conditions: ASO

Sequence | caspase activation (% of PBS control)
TGGCAAGCATCCTGTA (sugars ldldldddddddddll, PS) | 210
TGGCAAGCATCCTGTA (sugars ldlllddddddllddl, PS) | 495
TGGCAAGCATCCTGTA (sugars ldddldddddddlddl, PS) | 173
GTTACTGCCTTCTTAC (sugars l3 d9 l2 d1 l1, PS) | 202
GGCAAGCATCCTG (sugars l1 d1 l2 d8 l1, PS) | 547
GTTACTGCCTTCTTAC (sugars lldldddddddlddll, PS) | 161
ACTGCCTTCTTAC (sugars l1 d11 l1, PS) | 130
GTTACTGCCTTCTTAC (sugars ldlllddddddldddl, PS) | 453
GTTACTGCCTTCTTAC (sugars l1 d1 l1 d10 l3, PS) | 109
TTACTGCCTTCTT (sugars l1 d2 l1 d8 l1, PS) | 105
GTTACTGCCTTCTTAC (sugars l1 d10 l2 d1 l2, PS) | 136
TGGCAAGCATCCTGTA (sugars l3 d9 l2 d1 l1, PS) | 634
ACTGCCTTCTTAC (sugars l2 d9 l2, PS) | 167
TGGCAAGCATCCT (sugars l1 d11 l1, PS) | 123
GTTACTGCCTTCTTAC (sugars l1 d3 l1 d7 l4, PS) | 259
GTTACTGCCTTCTTAC (sugars ldlllddddddllddl, PS) | 499
GTTACTGCCTTCTTAC (sugars lldldddddddllldl, PS) | 307
TGGCAAGCATCCTGTA (sugars l3 d1 l1 d8 l3, PS) | 413
GTTACTGCCTTCTTAC (sugars ldllldddddddldll, PS) | 387
TGGCAAGCATCCT (sugars l2 d10 l1, PS) | 364
GTTACTGCCTTCTTAC (sugars l1 d2 l1 d10 l2, PS) | 93.2
TGGCAAGCATCCTGTA (sugars lddldddddddldldl, PS) | 274
TGGCAAGCATCCTGTA (sugars l1 d1 l2 d8 l4, PS) | 398
GTTACTGCCTTCTTAC (sugars lldldddddddddldl, PS) | 138
GTTACTGCCTTCTTAC (sugars ldddldddddddldll, PS) | 135
TACTGCCTTCTTA (sugars lldlddddddldl, PS) | 293

Sequence | caspase activation (% of PBS control)
GGCAAGCATCCTG (sugars l2 d1 l1 d8 l1, PS) | 359
GCAAGCATCCTGT (sugars l4 d6 l1 d1 l1, PS) | 305
CAAGCATCCTGTA (sugars l3 d8 l2, PS) | 302
GTTACTGCCTTCT (sugars l2 d9 l2, PS) | 114
GTTACTGCCTTCTTAC (sugars lddllddddddddldl, PS) | 246
GTTACTGCCTTCTTAC (sugars l3 d12 l1, PS) | 127
TGGCAAGCATCCTGTA (sugars ldddlddddddlddll, PS) | 221
ACTGCCTTCTTAC (sugars l1 d1 l1 d8 l2, PS) | 191
TGGCAAGCATCCTGTA (sugars ldlldddddddlldll, PS) | 381
TGGCAAGCATCCTGTA (sugars l3 d9 l1 d2 l1, PS) | 210
GCAAGCATCCTGT (sugars l1 d1 l2 d8 l1, PS) | 191
TTACTGCCTTCTT (sugars l1 d9 l3, PS) | 131
ACTGCCTTCTTAC (sugars lldlddddddldl, PS) | 146
TGGCAAGCATCCTGTA (sugars l2 d9 l1 d3 l1, PS) | 413
TTACTGCCTTCTT (sugars l3 d9 l1, PS) | 128
GGCAAGCATCCTG (sugars l1 d1 l2 d7 l2, PS) | 688
TGGCAAGCATCCTGTA (sugars l2 d2 l1 d6 l5, PS) | 432
CAAGCATCCTGTA (sugars l4 d6 l3, PS) | 171
TACTGCCTTCTTA (sugars l1 d2 l1 d6 l3, PS) | 246
TGGCAAGCATCCTGTA (sugars lldlddddddddldll, PS) | 502
GTTACTGCCTTCT (sugars l3 d8 l2, PS) | 164
TGGCAAGCATCCTGTA (sugars l4 d7 l3 d1 l1, PS) | 575
GTTACTGCCTTCTTAC (sugars l1 d14 l1, PS) | 102
TGGCAAGCATCCTGTA (sugars llldlddddddddldl, PS) | 350
GTTACTGCCTTCTTAC (sugars l3 d10 l3, PS) | 134
TTACTGCCTTCTT (sugars l1 d10 l2, PS) | 102

Sequence | caspase activation (% of PBS control)
GTTACTGCCTTCTTAC (sugars l2 d10 l2 d1 l1, PS) | 151
GTTACTGCCTTCTTAC (sugars l3 d1 l1 d10 l1, PS) | 185
GTTACTGCCTTCT (sugars l1 d2 l1 d6 l3, PS) | 134
GTTACTGCCTTCTTAC (sugars l2 d9 l1 d3 l1, PS) | 107
TGGCAAGCATCCTGTA (sugars l5 d10 l1, PS) | 403
CAAGCATCCTGTA (sugars l4 d6 l1 d1 l1, PS) | 159
TGGCAAGCATCCTGTA (sugars lldlddddddddlldl, PS) | 461
GTTACTGCCTTCTTAC (sugars l2 d12 l2, PS) | 103
TACTGCCTTCTTA (sugars l1 d9 l1 d1 l1, PS) | 142
ACTGCCTTCTTAC (sugars l3 d9 l1, PS) | 332
GTTACTGCCTTCTTAC (sugars ldlllddddddldldl, PS) | 438
GTTACTGCCTTCTTAC (sugars ldldlddddddddldl, PS) | 201
GTTACTGCCTTCTTAC (sugars l1 d3 l1 d10 l1, PS) | 130
TGGCAAGCATCCTGTA (sugars l1 d2 l1 d9 l3, PS) | 254
GGCAAGCATCCTG (sugars l4 d6 l1 d1 l1, PS) | 607
GTTACTGCCTTCTTAC (sugars lddlddddddddldll, PS) | 130
TGGCAAGCATCCTGTA (sugars l4 d7 l1 d3 l1, PS) | 299
GCAAGCATCCTGT (sugars l2 d1 l1 d7 l2, PS) | 319
TGGCAAGCATCCTGTA (sugars l2 d1 l2 d10 l1, PS) | 401
TGGCAAGCATCCTGTA (sugars llddlddddddllddl, PS) | 385
GTTACTGCCTTCTTAC (sugars llldlddddddlddll, PS) | 283
ACTGCCTTCTTAC (sugars l2 d8 l1 d1 l1, PS) | 199
TTACTGCCTTCTT (sugars l1 d1 l2 d7 l2, PS) | 165
CAAGCATCCTGTA (sugars ldllddddddldl, PS) | 130
TGGCAAGCATCCT (sugars l3 d7 l3, PS) | 249
TGGCAAGCATCCTGTA (sugars ldldldddddddldll, PS) | 290

Sequence | caspase activation (% of PBS control)
TGGCAAGCATCCTGTA (sugars l1 d2 l2 d9 l2, PS) | 380
TGGCAAGCATCCTGTA (sugars l2 d9 l5, PS) | 368
GTTACTGCCTTCT (sugars l1 d1 l2 d7 l2, PS) | 154
TGGCAAGCATCCTGTA (sugars lldldddddddldlll, PS) | 423
GTTACTGCCTTCTTAC (sugars lllllddddddldldl, PS) | 467
TGGCAAGCATCCTGTA (sugars l3 d9 l1 d1 l2, PS) | 416
TGGCAAGCATCCTGTA (sugars l4 d7 l1 d1 l3, PS) | 522
GTTACTGCCTTCTTAC (sugars l5 d9 l2, PS) | 363
TACTGCCTTCTTA (sugars l4 d8 l1, PS) | 435
TGGCAAGCATCCTGTA (sugars l2 d10 l2 d1 l1, PS) | 366
GTTACTGCCTTCTTAC (sugars ldlddddddddldldl, PS) | 145
GGCAAGCATCCTG (sugars l2 d10 l1, PS) | 291
GTTACTGCCTTCTTAC (sugars l5 d7 l1 d2 l1, PS) | 446
TGGCAAGCATCCTGTA (sugars lddllddddddldldl, PS) | 402
GCAAGCATCCTGT (sugars l1 d2 l1 d8 l1, PS) | 187
TGGCAAGCATCCTGTA (sugars l3 d1 l1 d7 l4, PS) | 377
GTTACTGCCTTCTTAC (sugars ldlldddddddlldll, PS) | 218
GTTACTGCCTTCTTAC (sugars ldlllddddddllldl, PS) | 639
TTACTGCCTTCTT (sugars l2 d8 l3, PS) | 270
GTTACTGCCTTCTTAC (sugars l5 d6 l3 d1 l1, PS) | 603
TTACTGCCTTCTT (sugars lddlddddddldl, PS) | 127
TGGCAAGCATCCTGTA (sugars l1 d2 l2 d8 l3, PS) | 419
TGGCAAGCATCCTGTA (sugars l3 d8 l2 d1 l2, PS) | 414
